Results reported in patent US20130324582A1, “METHODS AND COMPOSITIONS FOR REDUCING FUNGAL INFESTATION AND IMPROVING GRASS QUALITY” (BAYER CROPSCIENCE LP, priority 2012, published 2013).

Tested on: Dollar Spot
Test: Dollar Spot infestation on Bentgrass Green (field application by knapsack sprayer)
Assay type: in vivo, Sclerotinia homoeocarpa
Settings: applied at 0, 6, 14 days
Text: Example 1 sets forth the Dollar Spot infestation on Bentgrass Green.
A suspension concentrate composition of Compound I-1 as defined herein with and without the addition of Synergen® KN was applied to Bentgrass Green at 0, 6, and 14 days using a knapsack sprayer. Synergen® KN contains a blend of phosphate and ethoxylated alcohol compounds, such as a blend of poly(oxy-1,2-ethanediyl), α-isotridecyl-ω-hydroxy-, phosphate and ethoxylated C12-C16 alcohols.
In Table 1, untreated Bentgrass Green (1) was compared to a composition including Compound I-1 at 440 grams/hectacre (“GA/HA”) (2), a composition including Compound I-1 at 440 GA/HA+Synergen® KN at 1% by volume (3), a composition including Compound I-1 at 880 GA/HA (4), a composition including Compound I-1 at 880 GA/HA+Synergen® KN at 1% by volume (5), a composition including Compound I-1 at 1320 GA/HA (6), and composition including a Compound I-1 at 1320 GA/HA+Synergen® KN at 1% by volume (7). As set forth in Table 1, ratings were evaluated at −1, 6, 13, 22, 28, 35, and 48 days.

Cn1c(=O)c2sc3c(=O)n(C)c(=O)c3sc2c1=O [Compound I-1, 2,6-dimethyl-1H,5H-[1,4]dithiino[2,3-c:5,6-c′]dipyrrole-1,3,5,7(2H,6H)-tetrone]
Percentage of Dollar Spot (440 GA/HA, rating Day 6, adjuvant where present 1% by volume): 7.5%
Percentage of Dollar Spot (440 GA/HA, rating Day 13, adjuvant where present 1% by volume): 10.8%
Percentage of Dollar Spot (440 GA/HA, rating Day 22, adjuvant where present 1% by volume): 12.8%
Percentage of Dollar Spot (440 GA/HA, rating Day 28, adjuvant where present 1% by volume): 14.5%
Percentage of Dollar Spot (440 GA/HA, rating Day 35, adjuvant where present 1% by volume): 19.5%
Percentage of Dollar Spot (440 GA/HA, rating Day 48, adjuvant where present 1% by volume): 22.8%
Percentage of Dollar Spot (440 GA/HA, rating Day −1, adjuvant where present 1% by volume): 8.3%
Percentage of Dollar Spot (880 GA/HA, rating Day 6, adjuvant where present 1% by volume): 7.8%
Percentage of Dollar Spot (880 GA/HA, rating Day 13, adjuvant where present 1% by volume): 10.5%
Percentage of Dollar Spot (880 GA/HA, rating Day 22, adjuvant where present 1% by volume): 11.3%
Percentage of Dollar Spot (880 GA/HA, rating Day 28, adjuvant where present 1% by volume): 12.5%
Percentage of Dollar Spot (880 GA/HA, rating Day 35, adjuvant where present 1% by volume): 17%
Percentage of Dollar Spot (880 GA/HA, rating Day 48, adjuvant where present 1% by volume): 20.8%
Percentage of Dollar Spot (880 GA/HA, rating Day −1, adjuvant where present 1% by volume): 8.3%
Percentage of Dollar Spot (1320 GA/HA, rating Day 6, adjuvant where present 1% by volume): 8.3%
Percentage of Dollar Spot (1320 GA/HA, rating Day 13, adjuvant where present 1% by volume): 10.5%
Percentage of Dollar Spot (1320 GA/HA, rating Day 22, adjuvant where present 1% by volume): 12.8%
Percentage of Dollar Spot (1320 GA/HA, rating Day 28, adjuvant where present 1% by volume): 14.8%
Percentage of Dollar Spot (1320 GA/HA, rating Day 35, adjuvant where present 1% by volume): 17%
Percentage of Dollar Spot (1320 GA/HA, rating Day 48, adjuvant where present 1% by volume): 20%
Percentage of Dollar Spot (1320 GA/HA, rating Day −1, adjuvant where present 1% by volume): 9%
